{"source": "patent US20160113919A1", "about": "(The Board of Trustees of the Leland Stanford Junior …, priority 2014, published 2016)", "system": "virulent Mtb strain H37Rv", "type": "cell-based, Mycobacterium tuberculosis", "data": [{"smiles": "CCN(CC)CCC[C@@H](C)Nc1ccnc2cc(Cl)ccc12", "note": "[R-CQ, (R)-chloroquine]", "values": [{"measurement": "EC80 (microbicidal activity, TB replication in macrophages)", "value": 1, "unit": "µM"}, {"measurement": "microbicidal activity compared with S-CQ or racemic CQ", "value": "significantly higher"}]}, {"smiles": "CCN(CC)CCCC(C)Nc1ccnc2cc(Cl)ccc12", "note": "(racemic) [racemic CQ, chloroquine]", "values": [{"measurement": "EC80 (microbicidal activity, TB replication in macrophages)", "value": "~10", "unit": "µM"}]}, {"smiles": "CCN(CC)CCC[C@H](C)Nc1ccnc2cc(Cl)ccc12", "note": "[S-CQ, (S)-chloroquine]", "values": [{"measurement": "EC80 (microbicidal activity, TB replication in macrophages)", "value": "~10", "unit": "µM"}]}]}
